The values that follow are results of earlier work, collected in patent publication US11351185B2, “Use of isovalerylspiramycins as anti-cancer agents to inhibit metastasis” (priority 2020, dated 2022).

The test system of series [1] is in vivo cancer parameters. To be noted: animal models; cited from earlier work.
In another series the test system is human cancer lines. To be noted: MCF-7, MDA-MB-231, HepG2, A549, H460, H1299, 786-0, 769-P, U251, A172, U937, HeLa, PC3, PANC-1, TE-1, SGC-7901, HT-29, HL-60; cited from earlier work.

For `CCC(=O)O[C@@H]1CC(=O)O[C@H](C)C/C=C/C=C/[C@H](O[C@H]2CC[C@H](N(C)C)[C@@H](C)O2)[C@H](C)C[C@H](CC=O)[C@H](O[C@@H]2O[C@H](C)[C@@H](O[C@H]3C[C@@](C)(O)[C@@H](OC(=O)CC(C)C)[C@H](C)O3)[C@H](N(C)C)[C@H]2O)[C@H]1OC` [ISP III, 4″-isolvalerylspiramycin III], the “in vivo cancer parameters such as tumor growth rate and relative tumor volume” value in series [1] is given as “reduction”. Also, the “effect on proliferation in vitro of human cancer lines” value in the series on human cancer lines is reported as “inhibitory effect”.

In the case of `CO[C@@H]1[C@@H](O[C@@H]2O[C@H](C)[C@@H](O[C@H]3C[C@@](C)(O)[C@@H](OC(=O)CC(C)C)[C@H](C)O3)[C@H](N(C)C)[C@H]2O)[C@@H](CC=O)C[C@@H](C)[C@@H](O[C@H]2CC[C@H](N(C)C)[C@@H](C)O2)/C=C/C=C/C[C@@H](C)OC(=O)C[C@H]1OC(C)=O` [ISP II, 4″-isolvalerylspiramycin II], in series [1], the “in vivo cancer parameters such as tumor growth rate and relative tumor volume” value was “reduction”. Further, the “effect on proliferation in vitro of human cancer lines” value with human cancer lines is “inhibitory effect”.
